From publication PMC5201275, “Structural and Catalytic Properties of S1 Nuclease from Aspergillus oryzae Responsible for Substrate Recognition, Cleavage, Non–Specificity, and Inhibition” (PLoS ONE, 2016)

Molecular target: T1, S1 nuclease (S1wt; S1D65N) (Aspergillus oryzae, UniProt P24021)
T1 construct: gene nucS; Endo F1 deglycosylated for crystals; three Zn2+
T1 sequence (P24021 21-287): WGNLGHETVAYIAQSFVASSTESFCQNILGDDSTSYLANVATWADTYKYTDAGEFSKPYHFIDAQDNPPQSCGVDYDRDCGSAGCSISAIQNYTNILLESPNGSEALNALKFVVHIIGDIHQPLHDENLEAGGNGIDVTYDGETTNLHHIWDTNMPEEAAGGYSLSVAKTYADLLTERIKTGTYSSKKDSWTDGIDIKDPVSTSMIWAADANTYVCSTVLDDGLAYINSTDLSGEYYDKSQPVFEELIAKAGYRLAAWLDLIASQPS
Assay: X-ray crystal structure
Format: binding

## Nc1ccn([C@H]2C[C@H](O)[C@@H](CO)O2)c(=O)n1 [dCyt, 2'–deoxycytidine]
pH 4.2, NBS1, shallow mode, with phosphate in zinc cluster, co-crystallized with dC(pS)dC
  X-ray crystal structure: The structure contains one phosphate ion and one molecule of dCyt in the active site

## O=P(O)(O)O [Pi, phosphate ion]
pH 5.5, zinc cluster, first binding mode, occupancy 0.5, not added (no co-crystallization), also in 5FBB (pH 6.5) and 5FBD (pH 4.2, second mode)
  X-ray crystal structure: A phosphate ion inside the zinc cluster in the first binding mode is modeled
